Results published in US20250270584A1, “Gene editing to provide insect resistance in crops” (The Regents of the University of California, priority 2022, published 2025).

Experiments:
CaM7 = target: T1, CaM7 (Arabidopsis thaliana, UniProt P59220); assay: ITC (isothermal titration calorimetry) assay of CBD peptides with 6His-CaM7; assay type: binding; conditions: ratio of KD values
T1 construct: made in house; host or cells: Escherichia coli BL21 (DE3)
Protocol: ITC was carried out at 25° C. on a MicroCal iTC200 instrument (GE Healthcare). 250 μM of peptides were titrated against 20 μM of 6His-CaM7 proteins (purified by size-exclusion chromatography using Superdex 200 Increase 10/300 GL, GE Healthcare) in the reaction buffer (25 mM HEPES, 100 mM NaCl, pH 7.5) with addition of 1 mM Ca^2+ or 2 mM EGTA. Titrations were performed by an automated sequence of 20 injections spaced at 150-s intervals to ensure complete equilibration, and raw data were analyzed with Origin software (version 7.0) supplied with the instrument.

BoGLR3.3 = assay: Single-cell Ca2+ imaging in COS-7 cells expressing BoGLR3.3; assay type: cell-based, Brassica oleracea; conditions: COS-7 cells expressing BoGLR3.3 alone, external Glu application
Protocol: (§1) The full-length coding sequences were amplified from cDNA of Arabidopsis (GLR3.1, GLR3.3, and GLR3.6), B. oleracea (BoGLR3.3) or O. sativa (OsGLR3.1). The coding sequences of GLR3.3-CD2 and GLR3.3-T3 were generated through site-directed mutagenesis with GLR3.3 as template. All coding sequences respectively inserted into a dual-promoter vector pBudCE4.1 (Invitrogen) with coding sequence of GCaMP6s for co-expression in […] or COS-7 cells as previously described. Mammalian cells were cultured in DMEM supplemented with 10% FBS in a 5% CO2 incubator at 37° C. under controlled humidity, and transfected using a Lipofectamine 3000 Transfection Reagent kit (Invitrogen).
(§2) COS-7 cells expressing GCaMP6s together with various GLR proteins were monitored by a Zeiss AxioObserver ZI inverted microscope (Ivision 4.5 software) with 2-s intervals under a 20× objective as previously described. The standard solution for Ca^2+ imaging contained 120 mM NaCl, 3 mM KCl, 1 mM MgCl2, 1.2 mM NaHCO3, 10 mM glucose, 10 mM HEPES, pH 7.5. At 60 s after initiation of the imaging procedure, the bath was perfused using a peristaltic pump with the standard solution supplemented with 100 mM glutamate to elicit Ca^2+ entry through active channels.

OsGLR3.1 = target: T2, OsGLR3.1 (Oryza sativa subsp. japonica, UniProt Q7XP59); assay: Single-cell Ca2+ imaging in COS-7 cells expressing OsGLR3.1; assay type: cell-based; conditions: COS-7 cells expressing OsGLR3.1 alone, external Glu application
T2 construct: expressed in transfected cells; host or cells: COS-7
T2 sequence (Q7XP59 21-938): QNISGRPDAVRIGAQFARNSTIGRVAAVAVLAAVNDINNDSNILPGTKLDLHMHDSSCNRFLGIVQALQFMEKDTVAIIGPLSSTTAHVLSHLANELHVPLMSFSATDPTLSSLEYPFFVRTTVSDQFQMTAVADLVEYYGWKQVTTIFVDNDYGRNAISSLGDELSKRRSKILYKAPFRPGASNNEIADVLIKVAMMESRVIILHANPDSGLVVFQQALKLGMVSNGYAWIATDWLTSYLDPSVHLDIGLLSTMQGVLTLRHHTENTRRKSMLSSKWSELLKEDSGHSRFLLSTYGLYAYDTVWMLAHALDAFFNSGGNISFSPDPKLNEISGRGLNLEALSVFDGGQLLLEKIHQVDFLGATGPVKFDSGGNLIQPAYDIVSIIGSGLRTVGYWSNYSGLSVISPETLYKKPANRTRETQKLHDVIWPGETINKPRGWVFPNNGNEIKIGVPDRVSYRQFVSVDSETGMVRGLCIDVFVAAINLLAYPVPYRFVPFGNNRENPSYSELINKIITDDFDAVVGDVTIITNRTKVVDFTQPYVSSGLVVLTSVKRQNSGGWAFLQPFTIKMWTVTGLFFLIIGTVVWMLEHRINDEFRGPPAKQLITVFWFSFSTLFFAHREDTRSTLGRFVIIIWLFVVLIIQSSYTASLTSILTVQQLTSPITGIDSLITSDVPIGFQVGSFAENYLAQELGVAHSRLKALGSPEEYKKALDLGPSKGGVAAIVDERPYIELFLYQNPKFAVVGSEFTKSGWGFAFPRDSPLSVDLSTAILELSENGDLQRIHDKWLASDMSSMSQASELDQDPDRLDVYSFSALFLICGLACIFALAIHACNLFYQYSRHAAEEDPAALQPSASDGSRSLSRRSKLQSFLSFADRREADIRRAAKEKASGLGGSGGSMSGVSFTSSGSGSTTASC
Protocol: as §1, §2

GLR3.3 channel [1] = target: T3, GLR3.3 channel (Arabidopsis thaliana, UniProt Q9C8E7); assay: Single-cell Ca2+ imaging in COS-7 cells expressing GLR3.3; assay type: cell-based; set-up: expressed in transfected cells; host or cells: COS-7 (Ca2+ imaging); conditions: COS-7 cells expressing GLR3.3 alone, external Glu application (100 mM glutamate)
T3 sequence (Q9C8E7 24-933): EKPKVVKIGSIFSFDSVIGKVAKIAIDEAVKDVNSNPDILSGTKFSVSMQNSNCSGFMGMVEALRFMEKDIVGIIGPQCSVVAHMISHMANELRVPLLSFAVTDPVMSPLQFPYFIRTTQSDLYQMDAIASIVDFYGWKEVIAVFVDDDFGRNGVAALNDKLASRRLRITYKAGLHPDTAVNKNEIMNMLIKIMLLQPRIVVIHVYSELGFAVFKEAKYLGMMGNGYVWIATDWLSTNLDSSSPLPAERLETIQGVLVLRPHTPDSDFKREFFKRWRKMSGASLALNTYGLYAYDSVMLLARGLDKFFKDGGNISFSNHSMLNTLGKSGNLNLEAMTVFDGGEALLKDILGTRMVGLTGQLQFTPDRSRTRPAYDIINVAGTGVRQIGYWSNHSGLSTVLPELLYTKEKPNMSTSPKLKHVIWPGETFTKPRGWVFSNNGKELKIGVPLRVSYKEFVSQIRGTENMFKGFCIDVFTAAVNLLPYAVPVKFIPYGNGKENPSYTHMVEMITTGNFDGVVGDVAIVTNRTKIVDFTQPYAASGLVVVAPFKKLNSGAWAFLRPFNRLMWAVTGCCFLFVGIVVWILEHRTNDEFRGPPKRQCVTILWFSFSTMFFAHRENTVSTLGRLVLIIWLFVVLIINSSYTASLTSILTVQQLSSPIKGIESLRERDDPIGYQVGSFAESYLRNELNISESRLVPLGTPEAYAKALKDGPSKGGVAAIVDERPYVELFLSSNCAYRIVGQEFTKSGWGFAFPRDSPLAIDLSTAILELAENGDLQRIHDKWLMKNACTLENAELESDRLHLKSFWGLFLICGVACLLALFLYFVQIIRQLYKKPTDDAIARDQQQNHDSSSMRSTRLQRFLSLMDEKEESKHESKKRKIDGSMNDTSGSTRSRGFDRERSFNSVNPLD
Protocol: as §1, §2

GLR3.3 channel [2] = target: T3, GLR3.3 channel; assay: Whole-cell patch-clamp recording in HEK293 cells expressing GLR3.3; assay type: cell-based; set-up: expressed in transfected cells; host or cells: COS-7 (Ca2+ imaging) / HEK293 (patch clamp); conditions: HEK293 cells expressing GLR3.3 alone, free internal Ca2+ in pipette 1 μM, external Glu
Protocol: The whole-cell patch-clamp recordings were performed on an Axopatch 200B patch-clamp configuration with a Digidata 1550 digitizer (Axon Instruments) as described previously. Clampex 10.7 and Clampfit 10.7 software (Axon Instruments) were used for data acquisition and analysis.
To record Ca^2+ currents across plasma membrane of HEK293 cells, the bath solution contained 100 mM Na-glutamate, 40 mM NaCl, 5 mM KCl, 2 mM MgCl2, 10 mM CaCl2, 10 mM HEPES, and 10 mM glucose (pH 7.5, adjusted with NaOH). The pipette solution with 0 nM free Ca^2+ contained 140 mM CsCl, 5 mM EGTA, and 10 mM HEPES (pH 7.5, adjusted with CsOH), while the pipette solution with 1 μM free Ca^2+ contained 140 mM CsCl, 5 mM EGTA, 4.85 mM CaCl2) and 10 mM HEPES (pH 7.5, adjusted with CsOH). Free Ca^2+ was calculated with Webmaxc Standard software (https://somapp.ucdmc.ucdavis.edu/pharmacology/bers/maxchelator/webmaxc/webmaxcS.htm). A ramp voltage protocol of 2-s duration from −180 mV to +20 mV (holding potential 0 mV) was applied 1 min after achieving a whole-cell configuration, and currents were recorded every 20 s, with 5 repeats in total for each cell. The five current traces were used for statistical analysis to produce average current-voltage curves.

CC(C)C[C@H](NC(=O)[C@H](CO)NC(=O)[C@H](CC(C)C)NC(=O)[C@H](Cc1ccccc1)NC(=O)[C@H](CCCNC(=N)N)NC(=O)[C@H](CCC(N)=O)NC(=O)[C@H](CC(C)C)NC(=O)[C@H](CCCNC(=N)N)NC(=O)[C@@H](NC(=O)[C@H](CO)NC(=O)[C@H](CC(=O)O)NC(=O)[C@H](Cc1c[nH]cn1)NC(=O)[C@H](CC(N)=O)NC(=O)[C@H](CCC(N)=O)NC(=O)[C@H](CCC(N)=O)NC(=O)[C@H](CCC(N)=O)NC(=O)[C@@H](N)CC(=O)O)[C@@H](C)O)C(=O)O [mutated CBD peptide]
CaM binding affinity lower than that of wild type CBD (CaM7): approximately 10 fold

N[C@@H](CCC(=O)O)C(=O)O [Glu, glutamate]
Glu-activated [Ca2+]cyt change (BoGLR3.3): rapid [Ca^2+]cyt increases | Glu-activated [Ca2+]cyt change (OsGLR3.1): rapid [Ca^2+]cyt increases | Glu-activated [Ca2+]cyt change (GLR3.3 channel [1]): rapid [Ca^2+]cyt increases | Glu-induced currents (GLR3.3 channel [2]): large inward currents
